# Patent US20210029993A1, “SPATIAL INHIBITORS, DETERRENTS AND REPELLENTS FOR MOSQUITOES AND MIDGES” (BEDOUKIAN RESEARCH, INC., priority 2005, published 2021)
# Experiments:
# Assay type in all cases: in vivo
# [1] = tested on: female mosquitoes (Aedes aegypti); test: Mosquitoes feeding test (Plexiglas module, treated membrane over dyed sucrose/ATP solution); conditions: for Feeding Relative To Control: control = 1.00, lower = more repellent; for contact mosquito repellent activity (feeding tests, FIGS. 1 and 3), in words: feeding relative to control
# Protocol: The test was conducted at 0900-2100 hours in a walk-in incubator (26° C., 63-80% RH) illuminated by fluorescent lights. Mosquitoes were tested in a two-piece Plexiglas module designed to assess their response to feeding deterrents. The bottom piece of the module was 40×7×4-cm hollow platform supporting six circular wells (diameter=3.8 cm, depth=6 mm). Water (40° C.) flowed through the central cavity of the platform at a rate of 215 ml/min. The top piece of the module consisted of six 4.5×4.0×5.0 cm chambers, the floors of which were fitted with a sliding door positioned over a circular opening 3.5 cm in diameter. Mosquitoes were introduced through an aperture 1 cm in diameter on the front wall of the chambers. For each test, five female mosquitoes (Aedes aegypti) were aspirated into each of five chambers of the top module piece and the apertures were plugged with corks wrapped in plastic film. The wells on the bottom piece of the module were filled with 7 ml of 10% sucrose solution containing ATP (2.9 mg/ml). To each well, 75 μl of green dye (McCormick Food, Hunt Valley, Md.) were added so that those mosquitoes imbibing the sugar solution could be identified when crushed at the end of the tests. Each membrane received 50 ul of acetone or experimental compound solution, applied to 9.6 cm^2 circular area on 0.1 mm-thick membranes made of nylon mesh in a silicone matrix. The membranes were then placed over each well in contact with the sugar solution.
# The circular openings on the floor of each chamber of the top piece of the module were aligned with each membrane-covered well of the bottom piece. The sliding floors of the chambers were then opened allowing mosquitoes access to the membranes. The number of mosquitoes landing on the membranes, and those flying within the apparatus, were recorded each minute for five minutes. After five minutes, any mosquitoes remaining on the membranes were removed with a metal wire, and the door of the floor of each chamber was closed. The top piece of the module was then placed into a freezer for 20 minutes. In the test designed to assess feeding, mosquitoes were removed from the frozen module, crushed on white paper towels, and examined for the presence of green dye to indicate that feeding had occurred. The proportions of mosquitoes feeding per trial were analyzed using a standard generalized linear model with a logit link. Landing and flying scores are repeated measures; five reading were obtained for groups of five mosquitoes. Thus, to maintain independence among the data, the five readings were summed, and then the sums divided by 25 (the maximum score in each category) to create proportions of mosquitoes landing and flying. The proportions were then transferred using the standard variance stabilizing transformation for proportions (sin^−1 √y, where y is the proportion), and analyzed using ANOVA (Analysis of Variables)
# In Table 1, weight percent (wt %) refers to the weight of the deterring/repelling/inhibiting compound, or combination of compounds, in the composition used in the tests. […] The weight ratio of the compounds in the combination of compounds is given in parentheses in the “Compound(s)” column of Table 1.
# [2] = tested on: female biting midges (Culicoides impunctatus); test: Biting midges flying test (Plexiglas module); conditions: control = 1, higher = more inhibitor activity
# Protocol: The following tests are employed to illustrate the efficacy of the compounds of this disclosure to effectively act as biting midge deterrents, repellents or as spatial inhibitors for biting midges. […] Biting midges are tested in a two-piece Plexiglas module designed to assess their response to feeding deterrents. […] Water (40° C.) flows through the central cavity of the platform at a rate of 215 ml/min. The top piece of the module consists of six 4.5×4.0×5.0 cm chambers, the floors of which are fitted with a sliding door positioned over a circular opening 3.5 cm in diameter. Biting midges are introduced through an aperture 1 cm in diameter on the front wall of the chambers. For each test, five female biting midges (Culicoides impunctatus) are aspirated into each of five chambers of the top module piece and the apertures are plugged with corks wrapped in plastic film. […] To each well, 77.5 μl of green dye (McCormick Food, Hunt Valley, Md.) are added so that those biting midges imbibing the sugar solution can be identified when crushed at the end of the tests. Each membrane receives 50 μl of acetone or experimental compound solution, applied to 9.6 cm^2 circular area on 0.1 mm-thick membranes made of nylon mesh in a silicone matrix. The membranes are then placed over each well in contact with the sugar solution. The circular openings on the floor of each chamber of the top piece of the module are aligned with each membrane-covered well of the bottom piece. The sliding floors of the chambers are then opened allowing biting midges access to the membranes. The number of biting midges landing on the membranes, and those flying within the apparatus, are recorded each minute for five minutes. After five minutes, any biting midges remaining on the membranes are removed with a metal wire, and the door of the floor of each chamber is closed. The top piece of the module is then placed into a freezer for 20 minutes. In the test designed to assess feeding, biting midges are removed from the frozen module, crushed on white paper towels, and examined for the presence of green dye to indicate that feeding had occurred. The proportions of biting midges feeding per trial are analyzed using a standard generalized linear model with a logit link. Landing and flying scores are repeated measures; five readings are obtained for groups of five biting midges. Thus, to maintain independence among the data, the five readings are summed, and then the sums divided by 25 (the maximum score in each category) to create proportions of biting midges landing and flying. The proportions are then transferred using the standard variance stabilizing transformation for proportions (sin^−1 √y, where y is the proportion), and analyzed using ANOVA (Analysis of Variables). In Table 5, weight percent (wt %) refers to the weight of the deterring/repelling/inhibiting compound, or combination of compounds, in the composition used in the tests. […] The weight ratio of the compounds in the combination of compounds is given in parentheses in the “Compound(s)” column of Table 5.
# [3] = tested on: biting midges; test: Spatial inhibition of biting midges, outdoor trap catch; conditions: control trap = 100% catch, lower = more inhibition
# Protocol: Two grams of test compound is absorbed onto pieces of absorbent material. These pieces of absorbent material (fragrance release material from Rhopore Inc.) containing absorbed test compound are then placed in a stream of CO2 and r-octenol being released from a biting midges biting midge trap designed to attract biting midges. The test are rotated over a period of 2-5 days in such a manner that both control (trap without test compound) and test compound are tested an equal number of times in each trap employed. The number of biting midges caught in the traps with test compounds is compared to the number of biting midges caught in the trap with no test compound material present. […] Thus, a lowered percentage is indicative of the increasing ability of the test compounds to inhibit the ability of the biting midges sense the target. In Table 6, weight percent (wt %) refers to the weight of the deterring/repelling/inhibiting compound, or combination of compounds, in the composition used in the tests. In the “Percent Caught Relative to Control” column in Table 6, a lower percentage is indicative of the increasing ability of the test compounds to inhibit the ability of the biting midges to sense the target. The weight ratio of the compounds in the combination of compounds is given in parentheses in the “Compound(s)” column of Table 6.
# [4] = 90 wt % compound(s) in composition
# [5] = 87.5 wt % compound(s) in composition
# [6] = 82.5 wt % compound(s) in composition
Molecule,"Feeding Relative To Control [1, 4]","contact mosquito repellent activity (feeding tests, FIGS. 1 and 3), in words [1]","Flying Relative To Control [2, 4]","Percent Caught Relative To Control [3, 4] [%]","Feeding Relative To Control [1, 5]","Flying Relative To Control [2, 5]","Percent Caught Relative To Control [3, 5] [%]","Feeding Relative To Control [1, 6]","Flying Relative To Control [2, 6]","Percent Caught Relative To Control [3, 6] [%]"
CC1=CCC(C(C)(C)O)CC1 (stereo not drawn) [α-terpineol],0.80,especially effective as contact mosquito repellents,1.5,16,,,,,,
(+) Limonene oxide,,,,,0.78,0.95,19,,,
l-Carvone,,especially effective as contact mosquito repellents,,,,,,0.62,1.65,12
